In patent US20150125471A1, “METHOD AND PHARMACEUTICAL COMPOSITION FOR USE IN THE TREATMENT AND DIAGNOTIC OF ANEMIA OF INFLAMMATION” (INSERM (INSTITUT NATIONAL DE LA SANTE ET DE LA RECHERCHE …, priority 2012, published 2015):

Assays:
[1] = test system: Hepcidin (Hamp) mRNA in HepG2 cells; test: Hepcidin mRNA expression in HepG2 cells by qRT-PCR; assay type: cell-based, human; settings: for hepcidin mRNA expression increase / hepcidin −ΔΔCt ±SD: HepG2 cells, 50 ng/ml each, peak levels 4 hours after treatment
Experimental: (§1) Human hepatoma cells (HepG2; ATCC) were cultured in high glucose Dulbecco's Modified Eagle Media (DMEM) supplemented with 10% fetal calf serum (FCS) and antibiotics. For stimulation experiments, cells were transferred to 6-well dishes and starved with DMEM containing 0.1% FCS for 5 hours before exposure to IL-6 (50 ng/ml; R&D Systems) and/or activin A (50 ng/ml; R&D) or activin B (50 ng/ml; R&D) for 1 h30, 2 h30, 4 h, 6 h, and 24 h. The pharmacological inhibitor LDN-193189 (100 nM; Axon Medchem), ALK2-Fc (1 μg/mL; R&D), or ALK3-Fc (1 μg/mL; R&D) were added 30 min prior to activin B exposure.
(§2) Total RNA from mouse liver, human hepatoma cells, or mouse primary hepatocytes, was extracted using Trizol (Invitrogen). cDNA was synthesized using MMLV-RT (Promega). Quantitative PCR (Q-PCR) reactions were prepared with LightCycler® 480 DNA SYBR Green I Master reaction mix (Roche Diagnostics) and run in duplicate on a LightCycler® 480 Instrument (Roche Diagnostics).
(§3) Means of −ΔCt (i.e., Ct Hprt−Ct target)±standard deviation (SD) were calculated for the different groups of mice. Means of −ΔCt values between LPS-challenged and unchallenged mice were compared by Student's t-tests. Because, in addition to inflammation, mouse genotype (wild-type versus Bmp6−/−) may also affect mean −ΔCt values, we used two-way analysis of variance (ANOVA) to test for the effect of both factors and their interaction. Differences between mean −ΔCt at a specific time point after LPS administration and mean −ΔCt at time 0 (−ΔΔCt±SD) were also calculated and point estimations of fold changes induced by LPS administration obtained by raising 2 to the power −ΔΔCt (Yuan et al., 2006). For HepG2 cells or mouse primary hepatocytes, −ΔΔCt values (i.e., −ΔCt treatment+ΔCt vehicle)±SD were obtained for each condition and means of −ΔΔCt were compared to 0 by Student's t-tests.

BMP type I receptors = settings: 100 nM; cited from earlier work
[2] = test system: SMAD1/5/8 phosphorylation in HepG2 cells; test: SMAD1/5/8 phosphorylation in HepG2 cells by immunoblot; assay type: cell-based, human; settings: 2 h30, 4 or 6 hours; for SMAD1/5/8 phosphorylation: HepG2, 50 ng/ml
Experimental: as §1
(§4) Livers were homogenized in a FastPrep®-24 Instrument (MP Biomedicals) for 15 sec at 4 m/s. The lysis buffer (50 mM Tris-HCl, pH 8, 150 mM NaCl, 5 mM EDTA, pH 8, 0.1% NP-40) included inhibitors of proteases (complete protease inhibitor cocktail, Roche Applied Science) and of phosphatases (phosphatase inhibitor cocktail 2, Sigma-Aldrich). Liver proteins were quantified using the Bio-Rad Protein Assay kit. HepG2 cells and mouse primary hepatocytes were lysed in RIPA buffer (Sigma-Aldrich) supplemented with protease and phosphatase inhibitors, and proteins were quantified using the Bio-Rad DC Protein Assay.
Fresh protein extracts were diluted in Laemmli buffer (Sigma-Aldrich), incubated for 5 minutes at 95° C., and subjected to SDS-PAGE. Proteins were then transferred to PVDF membranes (Millipore). Membranes were blocked with 5% of dry milk in TBS-T buffer (10 mM Tris-HCl, pH 7.5, 150 mM NaCl, 0.15% Tween 20). They were incubated with rabbit antibodies to phospho-Smad1/5/8 (Cell Signaling Technology) or phospho-Stat3 (Cell Signaling) at 4° C. overnight, and washed with TBS-T buffer. Following incubation with a goat anti-rabbit IgG antibody (Cell Signaling) conjugated to horseradish peroxidase (HRP), enzyme activity was visualized by an ECL-based detection system (Millipore). Blots were then stripped and reprobed with rabbit antibodies to Smad5 (Epitomics) or Stat3 (Cell Signaling) 2 hours at RT before incubation with the goat anti-rabbit HRP-linked antibody.

[3] = test system: Smad1/5/8 phosphorylation in mouse primary hepatocytes; test: Smad1/5/8 phosphorylation in mouse primary hepatocytes by immunoblot; assay type: cell-based
Experimental: (§5) Mouse primary hepatocytes were isolated from ten-week-old Bmp6-deficient mice using a collagenase perfusion protocol (Lin et al., 2007). The viable hepatocyte population was further purified by a Percoll gradient centrifugation. Hepatocytes were plated in 6-well collagen-coated plates at 7×10^5 cells per well and cultured in DMEM supplemented with 10% FCS and antibiotics for 18 hours. After serum starvation for 5 hours in 0.1% FCS, hepatocytes were stimulated with IL-6 (50 ng/ml) and/or activin B (50 ng/ml), or vehicle, in the presence or absence of LDN-193189 (l μM), and RNA was harvested 1, 2, 3, and 4 hours later.
as §4
(§6) Fresh protein extracts were diluted in Laemmli buffer (Sigma-Aldrich), incubated for 5 minutes at 95° C., and subjected to SDS-PAGE. […]

[4] = test system: Hepcidin (Hamp) mRNA in mouse primary hepatocytes; test: Hepcidin mRNA expression in mouse primary hepatocytes by qRT-PCR; assay type: cell-based; settings: for hepcidin mRNA increase / hepcidin −ΔΔCt ±SD: primary hepatocytes from Bmp6-deficient mice, 50 ng/ml each, 2 h30
Experimental: as §5, §2, §3

hepcidin expression = settings: cultured hepatoma-derived cells, zebrafish, mouse, or rat; cited from earlier work
[5] = test system: Stat3 signaling in mouse primary hepatocytes; test: Stat3 signaling in mouse primary hepatocytes by immunoblot; assay type: cell-based; settings: 50 ng/ml, 2 h30
Experimental: as §5, §4, §6

[6] = test system: STAT3 phosphorylation in HepG2 cells; test: STAT3 phosphorylation in HepG2 cells by immunoblot; assay type: cell-based, human; settings: HepG2, 50 ng/ml
Experimental: as §1, §4
Fresh protein extracts were diluted in Laemmli buffer (Sigma-Aldrich), incubated for 5 minutes at 95° C., and subjected to SDS-PAGE. Proteins were then transferred to PVDF membranes (Millipore). […]

Row | Molecule | SMAD1/5/8 phosphorylation [2] | hepcidin mRNA expression increase [1] | hepcidin −ΔΔCt ±SD [1] | hepcidin mRNA increase [4] | hepcidin −ΔΔCt ±SD [4] | also measured
1 | c1ccc2c(-c3cnn4cc(-c5ccc(N6CCNCC6)cc5)cnc34)ccnc2c1 [LDN-193189, reference compound] |  |  |  |  |  | effect on induction of hepcidin gene expression by activin B ([1]; HepG2, 100 nM added 30 min before activin B (50 ng/ml), 2 h30, 4 or 6 hours after stimulation): completely abolished; activity of BMP type I receptors (BMP type I receptors): inhibit activity of BMP type I receptors; effect on Smad1/5/8 phosphorylation induced by activin B ([2]; HepG2, 100 nM added 30 min before activin B (50 ng/ml)): completely abolished; effect on Smad1/5/8 phosphorylation induced by activin B ([3]; 1 μM, activin B 50 ng/ml for 2 h30): prevented induction of Smad1/5/8 phosphorylation; effect on upregulation of Hamp gene expression by activin B ([4]; mouse primary hepatocytes, 1 μM, activin B 50 ng/ml): prevented; induction of hepcidin expression by IL-6, turpentine, or group A streptococcal peptidoglycan-polysaccharide (hepcidin expression): blocks induction of hepcidin expression
2 | activin A | not shared with activin A |  |  |  |  | 
3 | activin B | induces the phosphorylation of the SMAD effectors 1, 5 and 8 | about 13 fold | 3.71±0.46 | about 7 fold | 2.81±0.92 | SMAD1/5/8 phosphorylation ([3]; 50 ng/ml, 2 h30): induces
4 | IL-6: interleukin-6 cytokine, R&D Systems |  | about 6 fold | 2.63±0.26 | about 1.8 fold | 0.82±0.24 | Stat3 signaling [5]: strong activation of Stat3 signaling; STAT3 phosphorylation [6]: induces STAT3 phosphorylation
